{"source": "patent US8968801B1", "about": "“Supplement composition for supporting DNA repair and method of use” (Cellhealth Technologies Ltd., priority 2011, dated 2015)", "origin": "cited, not measured here", "system": "ras-transformed human mammary epithelial cells", "settings": "eupatilin derived from artemisia plants (Kim D H, et al. 2004)"}
{"smiles": "COc1ccc(-c2cc(=O)c3c(O)c(OC)c(O)cc3o2)cc1OC", "note": "[eupatilin]", "values": [{"measurement": "cell cycle arrest", "value": "induces cell cycle arrest"}]}
